# “Also recorded” adds a separate entry of the source. Like-named read-outs stand apart in the source and are kept apart here.
# Experiments:
# [1] = anion; cited from earlier work
# LPO expression = LPO expression with or without deferoxamine (ferroptosis indication); type: cell-based
# Balb/c and C57BL/6 mice = details: after priming and booster shot
# Procedure: In vivo vaccination of OVA with IL adjuvants in Balb/c and C57BL/6 mice. Antigen-specific antibodies and CD8+ T cell responses were evaluated after priming and booster shot.
# C57BL/6 mice = system: C57BL/6 mice
# Procedure: C57BL/6 mice received two immunizations with 10% IL (w/v) and ovalbumin as a model antigen, at day 0 and day 14.
# (§1) Cytokine responses were measured 4 hours after injection.
# Antibody responses were measured 14 and 28 days after injection.
# T cell responses were measured 7, 14, 21, or 28 days after injection.
# [2] = 10% ChoSorb injections
# Procedure: Blood was drawn 4 and 24 hours after the initial dose, and the levels of IL6 and MCP-1 measured (FIGS. 11A-11D). The levels of Tetramer cells were measured at Day 21 and Day 35 (FIGS. 12A-12D). […] The antibody response was measured (FIGS. 13A-13B).
# primary dendritic cells = details: IL at varying concentrations, with or without OVA
# Procedure: (§2) The impact of differential payloads impacting the ChoSorb response was investigated in vitro. The experiment was done with IL alone and IL+OVA at each concentration to understand how payload (OVA) impacts the cell death pathway since payload may impact the early cell death pathway. Cells were treated with IL at varying concentrations and with or without OVA, then stained with Annexin V and PI at 24 hours (FIGS. 28A-28B).
# mytotubes (C2C12 cells) = details: IL at varying concentrations, with or without OVA
# Procedure: as §2
# [3] = lower doses, comparing across IL concentration
# Balb/c mice = system: Balb/c mice
# Procedure: Balb/c mice received one immunization with 10% IL (w/v) and ovalbumin as a model antigen. The antibody and humoral response was then measured.
# as §1
# Antibody responses were measured 14 days after injection.
# OVA = molecular target: T1, OVA (Gallus gallus, UniProt P01012); test: Stability of OVA combined with IL adjuvants (dialysis/SEC, circular dichroism, SDS page); type: physicochemical
# T1 sequence (P01012 1-386): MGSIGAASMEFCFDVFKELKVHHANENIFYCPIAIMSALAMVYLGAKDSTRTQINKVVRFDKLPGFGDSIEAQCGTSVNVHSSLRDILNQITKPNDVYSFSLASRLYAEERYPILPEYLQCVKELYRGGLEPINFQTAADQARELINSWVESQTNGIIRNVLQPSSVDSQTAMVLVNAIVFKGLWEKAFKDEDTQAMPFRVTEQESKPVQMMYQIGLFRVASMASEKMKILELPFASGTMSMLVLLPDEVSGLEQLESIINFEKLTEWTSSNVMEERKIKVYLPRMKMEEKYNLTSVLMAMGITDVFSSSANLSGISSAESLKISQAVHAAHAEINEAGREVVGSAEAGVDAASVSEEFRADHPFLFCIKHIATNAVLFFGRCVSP
# Excerpt: Anions were varied based on hydrophobicity (FIG. 8). […] ILs were screened for: • a. Stability of OVA. […] In vitro immune cell maturation and activation.
# Role of the payload. […] Simple dialysis was replaced by SEC to remove OVA from ChoShorb formulations.
# [4] = 4 hours after injection, 10% IL (w/v) with ovalbumin
structure (smiles),measurement,setting,value
"CCC/C=C\CC/C=C\CCCCCC(=O)O [(7Z,11Z)-pentadeca-7,11-dienoate]",LogP,[1],5.4
"CC=CCCC=CCC(=O)O [Nona-3,7-dienoate]",LogP,[1],2.6
"CC(C)=C(C)/C=C/C(=O)O [(2E)-4,5-dimethyl-2,4-hexadienoic acid]",LogP,[1],2.5
"C=CC=CCCC(=O)O [4,6-Heptadienoic acid]",LogP,[1],1.5
"CCCCCCCCC=CCCCCCC=CCCC(=O)O [11,4-Eicosadienoic Acid]",LogP,[1],7.9
"C=CCC/C=C/C(=O)O [(2E)-hepta-2,6-dienoic acid]",LogP,[1],1.6
"C/C=C/C/C=C/C(=O)O [(2E,5E)-2,5-Heptadienoic acid]",LogP,[1],1.6
"C=CC=CCCCC(=O)O [5,7-Octadienoic acid]",LogP,[1],1.8
C/C=C/C=C/C(=O)O [Sorbic Acid],LogP,[1],1.43
"C=CCC/C=C/CC(=O)O [(3E)-3,7-octadienoic acid]",LogP,[1],1.8
"CC/C=C\C=C\C(=O)O [2,4-Heptadienoic acid, (2E,4Z)-]",LogP,[1],1.8
"C/C=C/CC/C=C/C(=O)O [(2E,6E)-2,6-Octadienoic acid]",LogP,[1],1.8
"C/C=C\CC/C=C\CCCCCCCC(=O)O [(9Z,13Z)-pentadeca-9,13-dienoate]",LogP,[1],5.5
"CCC/C=C/C=C\C(=O)O [(2Z,4E)-Octa-2,4-dienoic acid]",LogP,[1],2.3
"C/C=C/C=C/C(=O)[O-].C[N+](C)(C)CCO [ChoSorb, choline:sorbic acid]",LPO expression,LPO expression; early time points,induces LPO expression
same,LPO expression,"LPO expression; treated with deferoxamine (DFO), an iron chelator",not when treated with deferoxamine (DFO)
same,antigen-specific immune response (T-cell and antibody),Balb/c and C57BL/6 mice,create an antigen-specific immune response in both T-cell and antibody responses
same,IL-6 concentrations,C57BL/6 mice; [4],significantly higher
same,Total IgG antibody titers,C57BL/6 mice; Day 14,significantly increased
same,CD4+ memory T cells,C57BL/6 mice; Day 21,significant increase
same,"Th1/Th2 antibody response (IgG2c, IgG1)",C57BL/6 mice; Day 28,balanced immune response
same,Total IgG antibody titers,C57BL/6 mice; Day 28,significantly increased
same,level of antigen-specific T cells (OVA-tetramer staining of CD8+ T cells),C57BL/6 mice; especially after a booster vaccination,significantly increased
same,muscle tightness after injection,[2],cause muscle tightness over time
same,apoptosis (Annexin V and PI),primary dendritic cells,apoptosis occurs after 24 hours
same,apoptosis (Annexin V and PI),mytotubes (C2C12 cells),apoptosis occurs after 24 hours
same,"tetramer cell levels, separate vs combo delivery",[3],outperformed combo doses
same,IL-6 concentrations,Balb/c mice; [4],significantly higher
same,Total IgG antibody titers,Balb/c mice; Day 14,significantly increased
same,chemokine and cytokine levels in the serum,24 hour mark,significantly higher than saline
same,chemokine and cytokine levels in the serum,48 hour mark,no significant difference from saline
same,CD4+ T cells,among infiltrating cell types,significant increase
same,CD45+ cell infiltration into the muscle,compared to saline,more significant rate
same,inflammatory monocytes,draining lymph node,increase
same,mature resident cDC1 dendritic cells,draining lymph node,increase
same,Neutrophils,draining lymph node (dLN) after IL injection,spiked
same,Monocytes,injection site,increased significantly
same,inflammatory monocytes,injection site,increased significantly
same,IL-6,serum,upregulated
same,MCP-1,serum,upregulated
same,antigen (OVA) stability in IL formulation,OVA,preserve antigen stability; also recorded: stable
same,binding of OVA by IL,OVA; simple dialysis replaced by SEC to remove OVA,bound strongly
"CCC=CC=CCC(=O)O [Octa-3,5-dienoic acid]",LogP,[1],1.8
"CC=C(C)C=C(C)C(=O)O [2,4-Dimethyl-2,4-hexadienoic acid]",LogP,[1],2.3
"C=CCCC/C=C/C(=O)O [2E,7-Octadienoic acid]",LogP,[1],2.2
